Results on 18 molecules are retold here after patent publication US10385057B2, “Pyrazole compounds and methods of making and using same” (Lundbeck La Jolla Research Center, Inc., priority 2015, dated 2019).

For orientation: IC50 means the point on the concentration scale where inhibition reaches its midpoint. Read a high IC50 as weaker potency in that assay.

Assay [1] has as its target T1, MAGL (Mus musculus, UniProt O35678).
T1 construct: mouse brain membrane fraction or cell lysates for mouse assays; from tissue
T1 sequence (O35678 1-303): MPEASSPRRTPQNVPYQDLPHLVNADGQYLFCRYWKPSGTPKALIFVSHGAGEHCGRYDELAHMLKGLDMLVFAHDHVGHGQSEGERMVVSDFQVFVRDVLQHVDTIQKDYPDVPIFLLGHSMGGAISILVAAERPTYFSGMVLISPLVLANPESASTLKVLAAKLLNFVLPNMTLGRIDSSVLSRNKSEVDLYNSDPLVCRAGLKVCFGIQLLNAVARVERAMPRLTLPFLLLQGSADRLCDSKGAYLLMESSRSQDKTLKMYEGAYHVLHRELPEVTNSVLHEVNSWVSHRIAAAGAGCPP
Nature of the assay: In vitro competitive activity-based protein profiling, mouse MAGL. Particulars: for inhibition at 1 µM: read-out: MAGL % inh. 1 μM (mouse). The format is biochemical. In a few lines:
(§1)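 Mouse brain membranes or cell lysates (mouse) and human prefrontal cortex or cell membrane fractions (human), 1.0 mg/mL protein, preincubated with inhibitor 30 min at 37 °C, then FP-Rh or HT-01 probe 30 min at 37 °C. SDS-PAGE; MAGL and FAAH activity from in-gel fluorescence band intensity.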

Another assay addresses T2, FAAH (Mus musculus, UniProt O08914).
T2 construct: mouse brain membrane fraction or cell lysates for mouse assays; from tissue
T2 sequence (O08914 1-579): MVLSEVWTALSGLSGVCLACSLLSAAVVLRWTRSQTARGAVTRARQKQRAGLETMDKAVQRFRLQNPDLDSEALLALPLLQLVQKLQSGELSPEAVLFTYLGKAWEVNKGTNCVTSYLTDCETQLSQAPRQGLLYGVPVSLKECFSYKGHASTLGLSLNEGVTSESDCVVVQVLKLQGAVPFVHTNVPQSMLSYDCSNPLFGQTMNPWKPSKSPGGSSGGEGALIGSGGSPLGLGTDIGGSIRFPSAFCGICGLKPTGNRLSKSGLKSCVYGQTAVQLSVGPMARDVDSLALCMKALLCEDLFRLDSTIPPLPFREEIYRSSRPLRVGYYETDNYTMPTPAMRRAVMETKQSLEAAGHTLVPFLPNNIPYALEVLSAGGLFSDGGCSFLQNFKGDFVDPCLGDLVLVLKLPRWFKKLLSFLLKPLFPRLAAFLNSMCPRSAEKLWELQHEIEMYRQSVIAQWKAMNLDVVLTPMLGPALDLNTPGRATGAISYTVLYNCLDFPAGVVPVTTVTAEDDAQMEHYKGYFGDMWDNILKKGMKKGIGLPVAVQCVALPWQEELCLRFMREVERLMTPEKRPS
Briefly: In vitro competitive activity-based protein profiling, mouse FAAH. The format is biochemical. The settings on record: for inhibition at 1 µM: read-out: FAAH % inh. 1 μM (mouse). In a few lines: as §1

The target of assay [2] is T1, MAGL. Briefly: Mouse brain proteomes from inhibitor treated mice, MAGL. The format is in vivo. Particulars: oral gavage, brain 4 h after administration, read-out: MAGL % inh. 5 mg/kg (mouse). As for the experimental part:
Preparation of Mouse Brain Proteomes from Inhibitor Treated Mice.
Inhibitors were administered to wild-type C57Bl/6J by oral gavage in a vehicle of polyethylene glycol. Each animal was sacrificed 4 h following administration and brain proteomes were prepared and analyzed according to previously established methods (See Niphakis, M. J., et al. (2011) ACS Chem. Neurosci. and Long, J. Z., et al. Nat. Chem. Biol. 5:37-44).

As for `NC(=O)c1cnn(C(=O)N2CCC3(CCN(Cc4cccc(C(F)(F)F)c4)C3)C2)c1` (centres unmarked) [Example 41, 1-(7-(3-(trifluoromethyl)benzyl)-2,7-diazaspiro[4.4]nonane-2-carbonyl)-1H-pyrazole-4-carboxamide], the IC50 at MAGL [1] was 100 to 1000 nM; on FAAH it was not above 100 nM. The inhibition at 1 µM at MAGL [1] (1 μM) and on FAAH (1 μM) was not below 75% in each case. Besides, the inhibition at 5 mg/kg at MAGL [2] is not below 75%.
`NC(=O)c1cnn(C(=O)N2CC[C@]3(CCN(Cc4ccc(N5CCOCC5)cc4C(F)(F)F)C3)C2)c1` [Example 195, (S)-1-(7-(4-morpholino-2-(trifluoromethyl)benzyl)-2,7-diazaspiro[4.4]nonane-2-carbonyl)-1H-pyrazole-4-carboxamide]: the 50% inhibitory concentration (IC50) at MAGL [1] is 100 to 1000 nM; at FAAH, not above 100 nM. Also, the inhibition at 1 µM at MAGL [1] (1 μM) and at FAAH (1 μM) was not below 75% each time. For the same molecule, the inhibition at 5 mg/kg on MAGL [2] is not below 75%.
With `O=C(N1CCC2(CCN(Cc3ccccc3Cl)C2)C1)n1cc(Cl)cn1` (centres unmarked) [Example 112, (4-chloro-1H-pyrazol-1-yl)(7-(2-chlorobenzyl)-2,7-diazaspiro[4.4]nonan-2-yl)methanone], the results for the IC50 at MAGL [1] and on FAAH were 100 to 1000 nM and not above 100 nM, respectively. Also, the inhibition at 1 µM on MAGL [1] (1 μM) and at FAAH (1 μM) was not below 75% each time. Besides, the inhibition at 5 mg/kg on MAGL [2] lay within 0 to 25%.
For the molecule `CNC(=O)c1cnn(C(=O)N2C[C@H]3C[C@@H](N(C)Cc4ccc(C(F)(F)F)cc4)C[C@H]3C2)c1` [Example 54, N-methyl-1-(cis-5-(methyl(4-(trifluoromethyl)benzyl)amino)octahydrocyclopenta[c]pyrrole-2-carbonyl)-1H-pyrazole-4-carboxamide], the results for the IC50 at MAGL [1] and at FAAH were 100 to 1000 nM and not above 100 nM, respectively. Besides, the inhibition at 1 µM at MAGL [1] (1 μM) and at FAAH (1 μM) was not below 75% each time. Further, the inhibition at 5 mg/kg at MAGL [2] was not below 75%.
Regarding `NC(=O)c1cnn(C(=O)N2CCC3(CCN(Cc4cc(Cl)ccc4Cl)C3)C2)c1` (centres unmarked) [Example 39, 1-(7-(2,5-dichlorobenzyl)-2,7-diazaspiro[4.4]nonane-2-carbonyl)-1H-pyrazole-4-carboxamide], the inhibition at 1 µM on MAGL [1] (1 μM) and at FAAH (1 μM) was not below 75% in each case. Moreover, on MAGL [2], the inhibition at 5 mg/kg was not below 75%.
Take `CN(Cc1ccccc1Cl)[C@@H]1C[C@@H]2CN(C(=O)n3cc(C(N)=O)cn3)C[C@@H]2C1` [Example 88, 1-(cis-5-((2-chlorobenzyl)(methyl)amino)octahydrocyclopenta[c]pyrrole-2-carbonyl)-1H-pyrazole-4-carboxamide]: the IC50 on MAGL [1] was 100 to 1000 nM; at FAAH it was not above 100 nM. For the same molecule, the inhibition at 1 µM on MAGL [1] (1 μM) and on FAAH (1 μM) was not below 75% each time. In addition, the inhibition at 5 mg/kg on MAGL [2] was not below 75%.
Take `O=C(N1CC2CN(Cc3ccc(Cl)c(Cl)c3)CC2C1)n1cc(Cl)cn1` (centres unmarked) [Example 119, (4-chloro-1H-pyrazol-1-yl)(5-(3,4-dichlorobenzyl)hexahydropyrrolo[3,4-c]pyrrol-2(1H)-yl)methanone]: the IC50 at MAGL [1] and on FAAH was not above 100 nM in each case. Moreover, the inhibition at 1 µM on MAGL [1] (1 μM) and at FAAH (1 μM) was not below 75% throughout. The inhibition at 5 mg/kg on MAGL [2] is not below 75%.
Regarding `O=C(N1CC2CN(Cc3ccccc3Cl)CC2C1)n1cc(Cl)cn1` (centres unmarked) [Example 116, (4-chloro-1H-pyrazol-1-yl)(5-(2-chlorobenzyl)hexahydropyrrolo[3,4-c]pyrrol-2(1H)-yl)methanone], the concentration for half-maximal inhibition (IC50) on MAGL [1] was 100 to 1000 nM; at FAAH, not above 100 nM. Moreover, the inhibition at 1 µM on MAGL [1] (1 μM) and at FAAH (1 μM) was not below 75% in each case. The inhibition at 5 mg/kg on MAGL [2] was 25 to 50%.
Consider `CN(Cc1ccccc1C(F)(F)F)[C@@H]1C[C@@H]2CN(C(=O)n3cc(C(N)=O)cn3)C[C@@H]2C1` [Example 90, 1-(cis-5-(methyl(2-(trifluoromethyl)benzyl)amino)octahydrocyclopenta[c]pyrrole-2-carbonyl)-1H-pyrazole-4-carboxamide], for which the inhibition at 1 µM at MAGL [1] (1 μM) and on FAAH (1 μM) was not below 75% in each case. At MAGL [2], the inhibition at 5 mg/kg is not below 75%.
As to `NC(=O)c1cnn(C(=O)N2CCC3(CCN(Cc4ccc(N5CCOCC5)cc4C(F)(F)F)C3)C2)c1` (centres unmarked) [Example 45, 1-(7-(4-morpholino-2-(trifluoromethyl)benzyl)-2,7-diazaspiro[4.4]nonane-2-carbonyl)-1H-pyrazole-4-carboxamide], the values for the IC50 on MAGL [1] and at FAAH were 100 to 1000 nM and not above 100 nM, respectively. In addition, the inhibition at 1 µM on MAGL [1] (1 μM) and on FAAH (1 μM) was not below 75% each time. Moreover, the inhibition at 5 mg/kg at MAGL [2] is not below 75%.
On to `CN(Cc1ccccc1Cl)[C@@H]1C[C@@H]2CN(C(=O)n3cc(Cl)cn3)C[C@@H]2C1` [Example 59, (4-chloro-1H-pyrazol-1-yl)(trans-5-((2-chlorobenzyl)(methyl)amino)hexahydrocyclopenta[c]pyrrol-2(1H)-yl)methanone], for which the IC50 on MAGL [1] and on FAAH was not above 100 nM each time. The “MAGL % inh. 1 μM (mouse)” value at MAGL [1] (1 μM) is “A (% inhibition greater than or equal to 75%)”. In addition, the “FAAH % inh. 1 μM (mouse)” value on FAAH (1 μM) is on record as “A (% inhibition greater than or equal to 75%)”. In addition, at MAGL [2], the inhibition at 5 mg/kg is not below 75%.
With `NC(=O)c1cnn(C(=O)N2CCC3(CCN(Cc4cc(Cl)cc(C(F)(F)F)c4)C3)C2)c1` (centres unmarked) [Example 43, 1-(7-(3-chloro-5-(trifluoromethyl)benzyl)-2,7-diazaspiro[4.4]nonane-2-carbonyl)-1H-pyrazole-4-carboxamide], the concentration for half-maximal inhibition (IC50) on MAGL [1] and at FAAH was not above 100 nM each time. Besides, the inhibition at 1 µM on MAGL [1] (1 μM) and at FAAH (1 μM) was not below 75% throughout. Also, the inhibition at 5 mg/kg on MAGL [2] is not below 75%.
On to `O=C(N1CCC2(CCN(Cc3ccc(N4CCOCC4)cc3Cl)C2)C1)n1cc(Cl)cn1` (centres unmarked) [Example 137, (4-chloro-1H-pyrazol-1-yl)(7-(2-chloro-4-morpholinobenzyl)-2,7-diazaspiro[4.4]nonan-2-yl)methanone], for which the IC50 at MAGL [1] and at FAAH was not above 100 nM throughout. In addition, the inhibition at 1 µM on MAGL [1] (1 μM) and at FAAH (1 μM) was not below 75% each time.
With `CC(=O)N(Cc1cccc(Cl)c1)[C@H]1C[C@@H]2CN(C(=O)n3cc(Cl)cn3)C[C@@H]2C1` [Example 74, N-(trans-2-(4-chloro-1H-pyrazole-1-carbonyl)octahydrocyclopenta[c]pyrrol-5-yl)-N-(3-chlorobenzyl)acetamide], the inhibition at 1 µM on MAGL [1] (1 μM) and at FAAH (1 μM) was not below 75% throughout.
Regarding `NC(=O)c1cnn(C(=O)N2CC[C@]3(CCN(Cc4cc(Cl)cc(C(F)(F)F)c4)C3)C2)c1` [Example 193, (S)-1-(7-(3-chloro-5-(trifluoromethyl)benzyl)-2,7-diazaspiro[4.4]nonane-2-carbonyl)-1H-pyrazole-4-carboxamide], the IC50 at MAGL [1] and on FAAH was not above 100 nM each time.
For `CC(=O)N(Cc1cccc(Cl)c1)[C@@H]1C[C@@H]2CN(C(=O)n3cc(Cl)cn3)C[C@@H]2C1` [Example 60, N-(cis-2-(4-chloro-1H-pyrazole-1-carbonyl)octahydrocyclopenta[c]pyrrol-5-yl)-N-(3-chlorobenzyl)acetamide], the IC50 on MAGL [1] and on FAAH was not above 100 nM throughout. Besides, the inhibition at 1 µM on MAGL [1] (1 μM) and at FAAH (1 μM) was not below 75% in each case.
On to `NC(=O)c1cnn(C(=O)N2CCC3(CCN(Cc4ccc(Cl)c(Cl)c4)C3)C2)c1` (centres unmarked) [Example 202, 1-(7-(3,4-dichlorobenzyl)-2,7-diazaspiro[4.4]nonane-2-carbonyl)-1H-pyrazole-4-carboxamide], for which the inhibition at 1 µM at MAGL [1] (1 μM) and on FAAH (1 μM) was not below 75% each time.
For the molecule `CN(Cc1cccc(N2CCOCC2)c1)[C@@H]1C[C@@H]2CN(C(=O)n3cc(Cl)cn3)C[C@@H]2C1` [Example 81, (4-chloro-1H-pyrazol-1-yl)(cis-5-(methyl(3-morpholinobenzyl)amino)hexahydrocyclopenta[c]pyrrol-2(1H)-yl)methanone], the values for the IC50 at MAGL [1] and on FAAH were 1000 to 10000 nM and not above 100 nM, respectively. The inhibition at 1 µM on MAGL [1] (1 μM) was 25 to 50%; at FAAH (1 μM), not below 75%.
